Where no end group is shown, it is not given here.
Test system: rats
Assay: Natriuretic and diuretic effect of intravenous bolus injection in anesthetized rats
Type: in vivo, rat
Conditions: 30 to 60 min after minus 30 to 0 min before injection, mean ± SEM
Procedure: Diuretic and natriuretic activity of the peptides of this invention is assayed in male rats of the Sprague-Dawley or Long-Evans strains. Peptide or vehicle (for control purposes) is administered by intravenous bolus injection or by continuous infusion into one renal artery of animals anesthetized for the duration of the experiment, or by intramuscular or subcutaneous injection into animals only briefly anesthetized with ether and subsequently conscious and freely moving until completion of the experiment. Timed urine samples are collected for determination of volume and measurement of sodium and potassium concentration by flame photometry. Details of each method are given in Examples II to IV below.
The natriuretic and diuretic effect of intravenous bolus injection of peptides F15R, G13R and E19R was tested in male Sprague-Dawley or Long-Evans rats weighing 300-400 g. The animals were given Inactin®, 120 mg per kg body weight i.p. under light ether anesthesia. Following placement of a tracheal cannula, the right femoral vein was catheterized for infusion of 5% bovine serum albumin at a dose of 0.4% of body weight and at a rate of 6.0 ml/hour. Subsequently, normal saline was infused for the duration of the experiment at a rate of 2.0 ml/hour. The bladder was exposed through an abdominal incision and catheterized for urine collection. Serial 15-minute urine collections in preweighed vials were begun after a recovery period of 45 minutes. After collection of four control samples, the peptide in 0.1 ml of vehicle was injected into the femoral vein over a period of 1 minute and 6 to 10 further urine samples were collected. Urine volume was determined by weighing and urine sodium and potassium were assayed by flame photometry. All peptides produced natriuresis and diuresis reaching peak levels usually between 30 and 60 minutes after injection. The difference between urine volume and sodium excretion observed from 30 to 60 minutes after and 30 to 0 minutes before peptide administration was calculated for each rat as a measure of activity.

GNGDEQPLTPNPR [G13R]
Change in Sodium Excretion (i.v. bolus 0.100 nmol): 8.39 ± 4.41 μeq/30 minutes | Change in Urine Volume (i.v. bolus 0.100 nmol): 80.0 ± 29.2 μl/30 minutes | Change in Sodium Excretion (i.v. bolus 1.00 nmol): 12.48 ± 6.22 μeq/30 minutes | Change in Urine Volume (i.v. bolus 1.00 nmol): 62.0 ± 17.2 μl/30 minutes

From US5135912A, “Natriuretic peptides from the pituitary prohormone proopiomelanocortin” (Tosoh Corporation, priority 1988, dated 1992)
